Patent publication US9670209B2 (ACADIA Pharmaceuticals Inc., priority 2013, dated 2017)

Experiments:
[1] = biological target: human M3 muscarinic acetylcholine receptor (Homo sapiens (Human), UniProt P20309); assay: R-SAT (Receptor Selection and Amplification) assay, M3; type: cell-based; settings: for Emax: read-out: M3 EFF % AVG; for M3 PEC50 AVG: R-SAT, NIH-3T3 cells
Procedure: (§1) Briefly, NIH-3T3 cells were grown in 96-well tissue culture plates to 70% to 80% confluence. Cells were transfected with plasmid DNAs using Superfect Reagent (QIAGEN, Valencia, Calif.) as per the manufacturer's protocols. […] Cells were then grown in a humidified atmosphere with 5% ambient CO2 for 4 to 6 days. Media were then removed from the plates, and beta-galactosidase activity was measured by the addition of o-nitrophenyl-D-galactopyranoside (in phosphate-buffered saline with 5% NP-40 detergent). […] All data represent the mean of three wells and were analyzed using the computer program Excel Fit, and EC50 determinations were made using least-squares fit analysis with GraphPad Software Inc. (San Diego, Calif.) software.

[2] = biological target: human M1 muscarinic acetylcholine receptor (Homo sapiens (Human), UniProt P11229); assay: R-SAT (Receptor Selection and Amplification) assay, M1; type: cell-based; settings: for Emax: percent efficacy vs carbachol = 100 percent, read-out: M1 EFF % AVG
human M1 muscarinic acetylcholine receptor, sequence (P11229 whole entry): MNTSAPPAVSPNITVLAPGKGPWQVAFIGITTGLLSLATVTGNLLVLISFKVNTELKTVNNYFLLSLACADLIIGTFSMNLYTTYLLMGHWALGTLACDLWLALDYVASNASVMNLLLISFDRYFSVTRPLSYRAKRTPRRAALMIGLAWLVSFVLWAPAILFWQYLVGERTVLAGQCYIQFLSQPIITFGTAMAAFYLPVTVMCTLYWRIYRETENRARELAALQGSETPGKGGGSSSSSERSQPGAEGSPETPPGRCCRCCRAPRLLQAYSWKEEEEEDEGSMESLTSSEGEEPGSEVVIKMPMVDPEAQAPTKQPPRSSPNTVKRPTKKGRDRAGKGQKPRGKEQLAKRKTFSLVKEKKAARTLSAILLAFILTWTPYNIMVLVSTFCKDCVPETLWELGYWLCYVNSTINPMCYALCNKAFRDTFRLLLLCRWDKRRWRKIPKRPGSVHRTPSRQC
Procedure: as §1

[3] = biological target: M1 muscarinic receptor (Homo sapiens (Human), UniProt P11229); assay: M1 GTPγS binding assay; type: biochemical; settings: for Emax: read-out: M1 GTPγS EFF % AVG; for M1 GTPγS PEC50 AVG: GTPγS binding;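 as to Emax: efficacy relative to carbachol as 100%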
M1 muscarinic receptor, sequence (P11229 whole entry): as above

[4] = biological target: human M2 muscarinic acetylcholine receptor (Homo sapiens (Human), UniProt P08172); assay: R-SAT (Receptor Selection and Amplification) assay, M2; type: cell-based; settings: for M2 PEC50 AVG: R-SAT, NIH-3T3 cells; for Emax: read-out: M2 EFF % AVG
human M2 muscarinic acetylcholine receptor, sequence (P08172 whole entry): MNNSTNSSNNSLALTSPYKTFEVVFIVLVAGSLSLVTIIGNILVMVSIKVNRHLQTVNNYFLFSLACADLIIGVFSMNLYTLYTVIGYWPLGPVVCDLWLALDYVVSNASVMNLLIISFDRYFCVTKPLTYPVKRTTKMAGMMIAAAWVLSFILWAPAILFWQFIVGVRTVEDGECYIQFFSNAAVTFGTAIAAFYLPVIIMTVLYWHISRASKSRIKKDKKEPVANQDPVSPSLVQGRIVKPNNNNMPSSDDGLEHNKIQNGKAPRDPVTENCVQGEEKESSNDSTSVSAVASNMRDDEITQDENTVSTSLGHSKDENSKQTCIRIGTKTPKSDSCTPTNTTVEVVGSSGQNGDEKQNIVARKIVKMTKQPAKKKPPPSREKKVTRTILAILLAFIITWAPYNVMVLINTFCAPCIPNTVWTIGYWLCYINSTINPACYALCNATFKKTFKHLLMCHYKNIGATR
Procedure: as §1

human M3 muscarinic acetylcholine receptor, sequence (P20309 whole entry): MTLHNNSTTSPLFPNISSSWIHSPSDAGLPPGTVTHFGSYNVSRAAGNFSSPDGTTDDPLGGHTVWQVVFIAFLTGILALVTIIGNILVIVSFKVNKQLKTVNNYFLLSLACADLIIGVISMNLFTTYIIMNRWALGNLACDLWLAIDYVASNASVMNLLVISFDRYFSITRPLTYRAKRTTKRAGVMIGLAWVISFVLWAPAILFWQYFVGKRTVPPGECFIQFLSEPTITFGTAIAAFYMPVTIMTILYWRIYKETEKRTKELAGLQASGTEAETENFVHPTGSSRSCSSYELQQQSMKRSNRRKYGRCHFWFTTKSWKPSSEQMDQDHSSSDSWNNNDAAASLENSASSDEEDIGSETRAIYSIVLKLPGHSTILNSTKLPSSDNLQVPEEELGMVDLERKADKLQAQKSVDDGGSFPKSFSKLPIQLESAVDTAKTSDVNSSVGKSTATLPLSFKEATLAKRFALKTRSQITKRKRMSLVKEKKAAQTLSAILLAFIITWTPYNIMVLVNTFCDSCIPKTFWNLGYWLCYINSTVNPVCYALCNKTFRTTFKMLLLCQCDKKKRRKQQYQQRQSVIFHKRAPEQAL

| Structure (SMILES) | Emax [1] | M1 PEC50 AVG ([2]; NIH-3T3 cells) | Emax [2] | EC50 [3] | Emax [3] | M2 PEC50 AVG [4] | Emax [4] | M3 PEC50 AVG [1] | M1 GTPγS PEC50 AVG [3] | EC50 ([2]; NIH-3T3 cells, read-out: M1 PEC50 AVG (converted)) |
| --- | --- | --- | --- | --- | --- | --- | --- | --- | --- | --- |
| CCCO[C@H]1C[C@H]2CC[C@@H](C1)N2C[C@@H](C)Cn1ncc2ccccc21 [Compound 319s, 1-((R)-3-(3-(propoxy)-8-aza-bicyclo[3.2.1]octan-8-yl)-2-methylpropyl)-1H-indazole] | 3% | 8.1 | 111% | 200 nM | 63% | 7.5 | 102% |  |  |  |
| COCC[C@H]1C[C@H]2CC[C@@H](C1)N2C[C@@H](C)Cn1ncc2ccc(OC)cc21 [Compound 313, 1-((R)-3-((1R,3R,58)-3-(2-methoxyethyl)-8-azabicyclo[3.2.1]octan-8-yl)-2-methylpropyl)-6-methoxy-1H-indazole] | 7% | 8.2 | 116% | 39.8 nM | 49% | 7.3 | 111% |  |  |  |
| CCOCC[C@H]1C[C@H]2CC[C@@H](C1)N2C[C@@H](C)Cn1ncc2ccccc21 [Compound 323, 1-((R)-3-((1R,3R,5S)-3-(2-ethoxyethyl)-8-azabicyclo[3.2.1]octan-8-yl)-2-methylpropyl)-1H-indazole] | -2% | 9.1 | 66% | 20 nM | 32% | 7.8 | 34% |  |  |  |
| CCOCC[C@H]1C[C@H]2CC[C@@H](C1)N2C[C@@H](C)Cn1ncc2ccc(C)cc21 [Compound 324, 1-((R)-3-((1R,3R,5S)-3-(2-ethoxyethyl)-8-azabicyclo[3.2.1]octan-8-yl)-2-methylpropyl)-6-methyl-1H-indazole] | 17% | 9.1 | 82% | 6.31 nM | 31% | 7.9 | 45% |  |  |  |
| C[C@H](CN1[C@@H]2CC[C@H]1C[C@@H](OCC1CC1)C2)Cn1ncc2ccc(F)cc21 [Compound 307, 1-((R)-3-(3-(Cyclopropylmethoxy)-8-aza-bicyclo[3.2.1]octan-8-yl)-2-methylpropyl)-6-fluoro-1H-indazole] | 19% | 9.5 | 156% |  | 63% | 7.7 | 198% | 7.3 | 8.0 |  |
| C#CCO[C@H]1C[C@H]2CC[C@@H](C1)N2C[C@@H](C)Cn1ncc2ccccc21 [Compound 318s, 1-((R)-3-((1R,3R,5S)-3-(prop-2-ynyloxy)-8-azabicyclo[3.2.1]octan-8-yl)-2-methylpropyl)-1H-indazole] | 8% | 8.0 | 122% | 79.4 nM | 66% | 7.2 | 92% |  |  |  |
| COc1ccc2cnn(C[C@H](C)CN3[C@@H]4CC[C@H]3C[C@@H](OCC3CC3)C4)c2c1 [Compound 311] | 2% |  | 120% | 50.1 nM | 55% |  | 65% |  |  |  |
| C[C@H](CN1[C@@H]2CC[C@H]1C[C@@H](OC1CCCC1)C2)Cn1ncc2ccccc21 [Compound 314s, 1-((R)-3-((1R,3R,58)-3-(cyclopentyloxy)-8-azabicyclo[3.2.1]octan-8-yl)-2-methylpropyl)-1H-indazole] | 8% | 8.4 | 104% | 25.1 nM | 48% | 7.3 | 74% |  |  |  |
| Cc1nn(C[C@H](C)CN2[C@@H]3CC[C@H]2C[C@@H](OCC2CC2)C3)c2ccccc12 [Compound 316, 1-((R)-3-(3-(cyclopropylmethoxy)-8-aza-bicyclo[3.2.1]octan-8-yl)-2-methylpropyl)-3-methyl-1H-indazole] | 5% | 7.9 | 78% | 31.6 nM | 88% | 6.6 | 81% |  |  |  |
| Cc1ccc2c(cnn2C[C@H](C)CN2[C@@H]3CC[C@H]2C[C@@H](OCC2CC2)C3)c1 [Compound 321, 1-((R)-3-(3-(cyclopropylmethoxy)-8-aza-bicyclo[3.2.1]octan-8-yl)-2-methylpropyl)-5-methyl-1H-indazole] | 3% | 7.9 | 75% | 63.1 nM | 56% | 8.1 | 19% |  |  |  |
| C[C@H](CN1[C@@H]2CC[C@H]1C[C@@H](OCC1CC1)C2)Cn1ncc2ccc(CO)cc21 [Compound 310s] | 6% |  | 96% | 631 nM | 62% |  | 27% |  |  | 31.6 nM |
| C[C@H](CN1[C@@H]2CC[C@H]1C[C@@H](OCC1CCC1)C2)Cn1ncc2ccccc21 [Compound 315, 1-((R)-3-(3-(cyclobutylmethoxy)-8-aza-bicyclo[3.2.1]octan-8-yl)-2-methylpropyl)-1H-indazole] | 5% | 8.1 | 100% | 50.1 nM | 36% | 7.3 | 47% |  |  |  |
| Cc1cccc2cnn(C[C@H](C)CN3[C@@H]4CC[C@H]3C[C@@H](OCC3CC3)C4)c12 [Compound 317, 1-((R)-3-(3-(cyclopropylmethoxy)-8-aza-bicyclo[3.2.1]octan-8-yl)-2-methylpropyl)-7-methyl-1H-indazole] | 2% | 7.6 | 81% | 100 nM | 85% | 6.9 | 46% |  |  |  |
| C#CCO[C@H]1C[C@H]2CC[C@@H](C1)N2C[C@@H](C)Cn1ncc2ccc(OC)cc21 [Compound 322s, 1-((R)-3-((1R,3R,5S)-3-(prop-2-ynyloxy)-8-azabicyclo[3.2.1]octan-8-yl)-2-methylpropyl)-6-methoxy-1H-indazole] | 5% | 8.0 | 86% | 79.4 nM | 42% | 7.1 | 44% |  |  |  |
| COCC[C@H]1C[C@H]2CC[C@@H](C1)N2C[C@@H](C)Cn1ncc2ccc(F)cc21 [Compound 309, 1-((R)-3-(3-(2-Methoxyethyl)-8-aza-bicyclo[3.2.1]octan-8-yl)-2-methylpropyl)-6-fluoro-1H-indazole] | 18% | 9.4 | 123% |  | 53% | 7.5 | 176% | 6.9 | 7.3 |  |
| Cc1ccc2cnn(C[C@H](C)CN3[C@@H]4CC[C@H]3C[C@@H](OCC3CC3)C4)c2c1 [Compound 304, 1-((R)-3-(3-(Cyclopropylmethoxy)-8-aza-bicyclo[3.2.1]octan-8-yl)-2-methylpropyl)-6-methyl-1H-indazole] | 9% | 8.9 | 110% |  | 67% | 7.6 | 108% | 7.4 | 8.3 |  |
| C=CCO[C@H]1C[C@H]2CC[C@@H](C1)N2C[C@@H](C)Cn1ncc2ccc(F)cc21 [Compound 308, 1-((R)-3-(3-(Allyloxy)-8-aza-bicyclo[3.2.1]octan-8-yl)-2-methylpropyl)-6-fluoro-1H-indazole] | 18% | 8.9 | 131% |  | 66% | 7.4 | 152% | 6.3 | 7.1 |  |
